According to EPA's ToxRefDB 2:

Columns and labels:
rat [1] = details: Subchronic oral toxicity in rodents, fischer, Gavage/Intubation, dose end: 13 week, group: systemic
mouse [2] = details: Subchronic oral toxicity in rodents, b6c3f1, Gavage/Intubation, dose end: 13 week, group: systemic, systemic / pathology microscopic / kidney / fibrosis + systemic / pathology microscopic / kidney / inflammation + systemic / pathology …
rat [3] = details: Combined chronic toxicity/carcinogenicity; fischer; Oral; Gavage/Intubation; dose end: 2 year; group: systemic; systemic / pathology microscopic / kidney / cyst + systemic / pathology microscopic / kidney / hyperplasia + systemic / pathology …
mouse [4] = details: Carcinogenicity, b6c3f1, Oral, Gavage/Intubation, dose end: 2 year, group: systemic
mouse [5] = details: Subchronic oral toxicity in rodents, b6c3f1, Feed, dose end: 13 week, group: systemic
rat [6] = details: Subchronic oral toxicity in rodents, fischer, Feed, dose end: 13 week
mouse [7] = details: Carcinogenicity, b6c3f1, Oral, Feed, dose end: 105 week, group: systemic
rabbit = details: Prenatal developmental toxicity study, other, Oral, Gavage/Intubation, dose end: 19 GD
dog = details: Chronic toxicity, beagle, Oral, Capsule, dose end: 52 week, group: systemic
mouse [8] = details: Carcinogenicity, cd1, Oral, Feed, dose end: 80 week, group: systemic
mouse [9] = details: Sub-acute repeat dose toxicity; b6c3f1; Oral; Gavage/Intubation; dose end: 14 day; group: systemic; systemic / in life observation / clinical signs / distended abdomens + systemic / in life observation / clinical signs / fur (altered …
[10] = systemic / in life observation / clinical signs / motor activity + systemic / in life observation / body weight / body weight + systemic / …
[11] = systemic / in life observation / clinical signs / salivation
[12] = systemic / pathology microscopic / lung / hyperplasia
[13] = systemic / pathology microscopic / lung / hyperplasia + systemic / pathology microscopic / liver / adenoma + systemic / pathology …
[14] = systemic / in life observation / body weight / body weight + systemic / in life observation / body weight / body weight gain + systemic / …
[15] = group: developmental, developmental / offspring survival late / [other] / [other]
[16] = group: maternal, reproductive / offspring survival early / birth index / birth index
[17] = group: maternal, reproductive / reproductive performance / estrous cycle / length
[18] = group: systemic, systemic / pathology microscopic / spleen / hemosiderosis + systemic / in life observation / clinical signs / fur (altered appearance)
[19] = systemic / in life observation / body weight / body weight + systemic / hematology / reticulocyte / reticulocyte
[20] = group: developmental, developmental / developmental malformation / bone / [other]
[21] = group: maternal, reproductive / reproductive performance / resorptions / resorptions + systemic / in life observation / clinical signs / defecation (diarrhea…
[22] = systemic / in life observation / body weight / body weight gain
[23] = systemic / in life observation / body weight / body weight gain + systemic / in life observation / body weight / body weight + systemic / in…
[24] = systemic / in life observation / body weight / body weight gain + systemic / in life observation / body weight / body weight + systemic / …

c1ccc2occc2c1 [2,3-Benzofuran]
LOAEL (rat [1]; [10]): 125 mg/kg/day
NOAEL (rat [1]; [10]): 62.5 mg/kg/day
LEL (rat [1]; [11]): 31.2 mg/kg/day
NEL (rat [1]; [11]): < 31.2 mg/kg/day
LEL (mouse [2]): 250 mg/kg/day
LOAEL (mouse [2]): 250 mg/kg/day
NEL (mouse [2]): 125 mg/kg/day
NOAEL (mouse [2]): 125 mg/kg/day
LEL (rat [3]): 30 mg/kg/day
LOAEL (rat [3]): 30 mg/kg/day
NEL (rat [3]): < 30 mg/kg/day
NOAEL (rat [3]): < 30 mg/kg/day
LOAEL (mouse [4]; [12]): 60 mg/kg/day
NOAEL (mouse [4]; [12]): < 60 mg/kg/day
LEL (mouse [4]; [13]): 60 mg/kg/day
NEL (mouse [4]; [13]): < 60 mg/kg/day

CC(C)(C)c1cc(O)ccc1O [tert-Butylhydroquinone]
LOAEL (mouse [5]; systemic / in life observation / body weight / body weight + systemic / in life observation / body weight / body weight gain): 1950 mg/kg/day
LEL (mouse [5]; [14]): 1950 mg/kg/day
NEL (mouse [5]; [14]): 880 mg/kg/day
NOAEL (mouse [5]; [14]): 880 mg/kg/day
LEL (rat [6]; [15]): 750 mg/kg/day
NEL (rat [6]; [15]): 400 mg/kg/day
LOAEL (rat [6]; [16]): 1000 mg/kg/day
NOAEL (rat [6]; [16]): 500 mg/kg/day
LEL (rat [6]; [17]): 200 mg/kg/day
NEL (rat [6]; [17]): < 200 mg/kg/day
LOAEL (rat [6]; group: systemic, systemic / in life observation / body weight / body weight + systemic / in life observation / body weight / offspring (pup) weight): 400 mg/kg/day
NOAEL (rat [6]; group: systemic, systemic / in life observation / body weight / body weight + systemic / in life observation / body weight / offspring (pup) weight + …): 200 mg/kg/day
LEL (rat [6]; [18]): 200 mg/kg/day
NEL (rat [6]; [18]): < 200 mg/kg/day
LOAEL (mouse [7]; systemic / in life observation / body weight / body weight): 600 mg/kg/day
LEL (mouse [7]; [19]): 600 mg/kg/day
NEL (mouse [7]; [19]): 300 mg/kg/day
NOAEL (mouse [7]; [19]): 300 mg/kg/day

COS(=O)(=O)[O-].Cn1c(-c2ccccc2)cc(-c2ccccc2)[n+]1C [Difenzoquat metilsulfate]
LEL (rabbit; [20]): 250 mg/kg/day
LOAEL (rabbit; [20]): 250 mg/kg/day
NEL (rabbit; [20]): 100 mg/kg/day
NOAEL (rabbit; [20]): 100 mg/kg/day
LEL (rabbit; [21]): 250 mg/kg/day
LOAEL (rabbit; [21]): 250 mg/kg/day
NEL (rabbit; [21]): 100 mg/kg/day
NOAEL (rabbit; [21]): 100 mg/kg/day
LOAEL (dog; [22]): 30 mg/kg/day
LEL (dog; [23]): 30 mg/kg/day
NEL (dog; [23]): 20 mg/kg/day
NOAEL (dog; [23]): 20 mg/kg/day
LEL (mouse [8]; [22]): 69.4 mg/kg/day
LOAEL (mouse [8]; [22]): 69.4 mg/kg/day
NEL (mouse [8]; [24]): 26.9 mg/kg/day
NOAEL (mouse [8]; [24]): 26.9 mg/kg/day

O=C(O)c1ccccc1 [Benzoic acid]
LEL (mouse [9]): 642 mg/kg/day
LOAEL (mouse [9]): > 642 mg/kg/day
NEL (mouse [9]): 321 mg/kg/day
NOAEL (mouse [9]): ≥ 642 mg/kg/day
